{
  "source": "patent US12396461B2",
  "about": "“Functional peptides having antimicrobial activity against phytopathogenic microorganisms” (TOYOTA JIDOSHA KABUSHIKI KAISHA, priority 2019, dated 2025)",
  "key": {"[1]": {"system": "Xanthomonas oryzae pv. oryzae"}, "[2]": {"system": "Colletotrichum orbiculare", "format": "cell-based", "design": "key to Plate antimicrobial activity test Colletotrichum orbiculare, level: a case where hyphae extended to the entire well and no antimicrobial activity was found is defined as “level 0,”; a case where hyphae extended to less than a half of the well and thus the peptide inhibited the growth of the hyphae is defined as “level 1,”; a case where ungerminated spores were present and the peptide partially inhibited the germination is defined as “level 2,”; a case where all spores were ungerminated and the peptide completely inhibited the germination is defined as “level 3.”", "settings": "for Plate antimicrobial activity test Colletotrichum orbiculare, level: 25° C. for 1 day or 2 days, microscopic observation"}, "Botrytis cinerea [3]": {"system": "Botrytis cinerea", "experiment": "Botrytis cinerea leaf inoculation test (tomato leaf)", "format": "in vivo", "settings": "peptide 100 μM; tomato leaf, 25° C. for 2 days, lesions by visual inspection; symbols ◯/Δ/X not defined", "experimental": "In the present example, a suspension comprising Botrytis cinerea and a peptide to be tested was dropped on a plant leaf, and lesions were then observed by visual inspection to evaluate the antimicrobial activity of the tested peptide. First, the pores of Botrytis cinerea were suspended in a potato dextrose broth (PDB) to result in a spore concentration of 5×10^5 spores/ml, so as to prepare a PDB suspension spore solution. Subsequently, a peptide to be tested (TsORF6-1) was added to the PDB suspension spore solution, so that the final concentration of the peptide to be tested became 0 μM, 1 μM, 10 μM or 100 μM. Thereafter, 10 μl each of the PDB suspension spore solution containing the peptide to be tested was dropped on the front side and the back side of the leaf of tomato (variety name: “Momotaro Fight”). In this condition, incubation was carried out at 25° C. for 2 days. Thereafter, the front and back sides of the leaf were observed by visual inspection."}, "[4]": {"system": "Colletotrichum destructivum", "experiment": "Colletotrichum destructivum leaf inoculation test (Chinese cabbage leaf)", "format": "in vivo", "settings": "25° C. for 4 days; for lesion of Colletotrichum destructivum on Chinese cabbage leaf, result in words: FIG. 3; for Leaf inoculation test Chinese cabbage/Colletotrichum destructivum: lesions by visual inspection, symbols ◯/Δ/X not defined", "experimental": "In the present example, a suspension comprising Colletotrichum destructivum and a peptide to be tested was dropped on a plant leaf, and lesions were then observed by visual inspection to evaluate the antimicrobial activity of the tested peptide. First, the pores of Colletotrichum destructivum were suspended in water to result in a spore concentration of 5×10^5 spores/ml, so as to prepare a water suspension of spores. Subsequently, a peptide to be tested (TsORF6-1) was added to the water suspension of spores, so that the final concentration of the peptide to be tested became 0 μM, 1 μM, 10 μM or 100 μM. Thereafter, 10 μl each of the water suspension of spores containing the peptide to be tested was dropped on the front side and the back side of the leaf of Chinese cabbage (variety name: “Kigokoro 85”). In this condition, incubation was carried out at 25° C. for 4 days. Thereafter, the front and back sides of the leaf were observed by visual inspection."}, "Botrytis cinerea [5]": {"system": "Botrytis cinerea", "format": "cell-based", "design": "key to Plate antimicrobial activity test Botrytis cinerea, level: a case where hyphae extended to the entire well and no antimicrobial activity was found is defined as “level 0,”; a case where hyphae extended to less than a half of the well and thus the peptide inhibited the growth of the hyphae is defined as “level 1,”; a case where ungerminated spores were present and the peptide partially inhibited the germination is defined as “level 2,”; a case where all spores were ungerminated and the peptide completely inhibited the germination is defined as “level 3.”", "settings": "for Plate antimicrobial activity test Botrytis cinerea, level: 25° C. for 1 day or 2 days, microscopic observation"}, "Pyricularia oryzae": {"system": "Pyricularia oryzae", "format": "cell-based", "design": "key to Plate antimicrobial activity test Pyricularia oryzae, level: a case where hyphae extended to the entire well and no antimicrobial activity was found is defined as “level 0,”; a case where hyphae extended to less than a half of the well and thus the peptide inhibited the growth of the hyphae is defined as “level 1,”; a case where ungerminated spores were present and the peptide partially inhibited the germination is defined as “level 2,”; a case where all spores were ungerminated and the peptide completely inhibited the germination is defined as “level 3.”", "settings": "for Plate antimicrobial activity test Pyricularia oryzae, level: 25° C. for 1 day or 2 days, microscopic observation"}, "Fusarium oxysporum": {"system": "Fusarium oxysporum", "format": "cell-based", "design": "key to Plate antimicrobial activity test Fusarium oxysporum, level: a case where hyphae extended to the entire well and no antimicrobial activity was found is defined as “level 0,”; a case where hyphae extended to less than a half of the well and thus the peptide inhibited the growth of the hyphae is defined as “level 1,”; a case where ungerminated spores were present and the peptide partially inhibited the germination is defined as “level 2,”; a case where all spores were ungerminated and the peptide completely inhibited the germination is defined as “level 3.”"}, "[6]": {"system": "Erwinia carotovora subsp. carotovora", "settings": "100 μM"}, "[7]": {"system": "Pseudomonas syringae pv. tomato"}, "Ralstonia solanacearum": {"system": "Ralstonia solanacearum", "settings": "100 μM"}, "[8]": {"system": "Colletotrichum destructivum", "format": "cell-based", "design": "key to Plate antimicrobial activity test Colletotrichum destructivum, level: a case where hyphae extended to the entire well and no antimicrobial activity was found is defined as “level 0,”; a case where hyphae extended to less than a half of the well and thus the peptide inhibited the growth of the hyphae is defined as “level 1,”; a case where ungerminated spores were present and the peptide partially inhibited the germination is defined as “level 2,”; a case where all spores were ungerminated and the peptide completely inhibited the germination is defined as “level 3.”", "settings": "for Plate antimicrobial activity test Colletotrichum destructivum, level: 25° C. for 1 day or 2 days, microscopic observation"}, "[9]": {"settings": "(FIG. 1, Table 3), concentration not given"}},
  "note": "Several values for one entry are separate records, joined by “and”; a condition that tells them apart may be missing. Equal entries are not always repeated. Entries after “also recorded” stand apart in the source; their conditions may differ. Where two headings read alike, the source gives them in different places. Where no end group is shown, it is not given here.",
  "data": [
    {"sequence": "MKVMIVVKTKVKNKKVAKMMVK [TsORF6-1]", "values": [
      {"measurement": "Inhibitory rate Xanthomonas oryzae pv. oryzae", "setting": "[1]; 100 μM, calculated from OD600 versus water added", "value": 47.6, "unit": "%"},
      {"measurement": "OD600 Xanthomonas oryzae pv. oryzae", "setting": "[1]; 100 μM, cultured at 28° C. a whole day and night", "value": 1.1},
      {"measurement": "growth of Xanthomonas oryzae pv. oryzae, result in words", "setting": "[1]; Table 4", "value": "could inhibit the growth"},
      {"measurement": "germination of Colletotrichum orbiculare, result in words", "setting": "[2]; [9]", "value": "completely inhibited in terms of germination; also recorded: could inhibit germination"},
      {"measurement": "Plate antimicrobial activity test Colletotrichum orbiculare, level", "setting": "[2]; peptide 1 μM", "value": 0},
      {"measurement": "Plate antimicrobial activity test Colletotrichum orbiculare, level", "setting": "[2]; peptide 10 μM", "value": 0},
      {"measurement": "Plate antimicrobial activity test Colletotrichum orbiculare, level", "setting": "[2]; peptide 100 μM", "value": 2},
      {"measurement": "Leaf inoculation test Tomato/Botrytis cinerea", "setting": "Botrytis cinerea [3]", "value": "◯"},
      {"measurement": "lesion of Colletotrichum destructivum on Chinese cabbage leaf, result in words", "setting": "[4]; water suspension of spores containing 10 μl peptide", "value": "a lesion of Colletotrichum destructivum was not observed"},
      {"measurement": "lesion of Colletotrichum destructivum on Chinese cabbage leaf, result in words", "setting": "[4]; water suspension of spores containing 100 μl peptide", "value": "a lesion of Colletotrichum destructivum was not observed"},
      {"measurement": "Leaf inoculation test Chinese cabbage/Colletotrichum destructivum", "setting": "[4]; peptide 10 μM", "value": "◯"},
      {"measurement": "Leaf inoculation test Chinese cabbage/Colletotrichum destructivum", "setting": "[4]; peptide 100 μM", "value": "◯"},
      {"measurement": "germination of Botrytis cinerea, result in words", "setting": "Botrytis cinerea [5]; [9]", "value": "completely inhibited in terms of germination; also recorded: could inhibit germination"},
      {"measurement": "Plate antimicrobial activity test Botrytis cinerea, level", "setting": "Botrytis cinerea [5]; peptide 1 μM", "value": 0},
      {"measurement": "Plate antimicrobial activity test Botrytis cinerea, level", "setting": "Botrytis cinerea [5]; peptide 10 μM", "value": 0},
      {"measurement": "Plate antimicrobial activity test Botrytis cinerea, level", "setting": "Botrytis cinerea [5]; peptide 100 μM", "value": 3},
      {"measurement": "germination of Pyricularia oryzae, result in words", "setting": "Pyricularia oryzae; [9]", "value": "completely inhibited in terms of germination; also recorded: could inhibit germination"},
      {"measurement": "Plate antimicrobial activity test Pyricularia oryzae, level", "setting": "Pyricularia oryzae; peptide 1 μM", "value": 0},
      {"measurement": "Plate antimicrobial activity test Pyricularia oryzae, level", "setting": "Pyricularia oryzae; peptide 10 μM", "value": 0},
      {"measurement": "Plate antimicrobial activity test Pyricularia oryzae, level", "setting": "Pyricularia oryzae; peptide 100 μM", "value": 2},
      {"measurement": "Plate antimicrobial activity test Fusarium oxysporum, level", "setting": "Fusarium oxysporum", "value": "2 and 0"},
      {"measurement": "germination of Fusarium oxysporum, result in words", "setting": "Fusarium oxysporum", "value": "completely inhibited in terms of germination; also recorded: could inhibit germination"},
      {"measurement": "Inhibitory rate Erwinia carotovora subsp. carotovora", "setting": "[6]", "value": "−14.9", "unit": "%"},
      {"measurement": "OD600 Erwinia carotovora subsp. carotovora", "setting": "[6]", "value": 2.2},
      {"measurement": "growth of Pseudomonas syringae pv. tomato, result in words", "setting": "[7]", "value": "could inhibit the growth"},
      {"measurement": "Inhibitory rate Pseudomonas syringae pv. tomato", "setting": "[7]; 100 μM", "value": 90.6, "unit": "%"},
      {"measurement": "OD600 Pseudomonas syringae pv. tomato", "setting": "[7]; 100 μM", "value": 0.2},
      {"measurement": "Inhibitory rate Ralstonia solanacearum", "setting": "Ralstonia solanacearum; calculated from OD600 versus water added", "value": "−5.2", "unit": "%"},
      {"measurement": "OD600 Ralstonia solanacearum", "setting": "Ralstonia solanacearum; cultured at 28° C. a whole day and night", "value": 2.7},
      {"measurement": "germination of Colletotrichum destructivum, result in words", "setting": "[8]; [9]", "value": "completely inhibited in terms of germination; also recorded: could inhibit germination"},
      {"measurement": "Plate antimicrobial activity test Colletotrichum destructivum, level", "setting": "[8]; peptide 1 μM", "value": 0},
      {"measurement": "Plate antimicrobial activity test Colletotrichum destructivum, level", "setting": "[8]; peptide 10 μM", "value": 0},
      {"measurement": "Plate antimicrobial activity test Colletotrichum destructivum, level", "setting": "[8]; peptide 100 μM", "value": 3}
    ]}
  ]
}
